Assay results: the supplement of paper PMC11208160

Assay: recombinant barcode read abundance after kanamycin selection (control-corrected) (log10(CPM+1)); higher = more efficient recombination; sequences stand for … in AGTGCAGAGAAAATCGGCCAGTTTTCTCTGCCTGCAGTCCGCATGCCGT…AGATTTATGCAGCGGACTGCCTTTCTCCCAAAGTGATAAACCGGACAGTATCATGGACCGGTTTTCCCGGTAATCCGTATTTGCAAGGTTGGTTTCACT; site = the 11-nt target
How it was run: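 Oligos holding a promoter, target, barcode and the J23119-driven first 104 bases of the bridge RNA were Gibson-cloned into a vector that supplied the other 73 bp plus a T7-inducible recombinase. This library was co-electroporated with a donor plasmid into E. coli. Two replicates went on chloramphenicol/ampicillin LB agar (control) and two on chloramphenicol/ampicillin/kanamycin with 0.1 mM IPTG. Recombination efficiency is read from averaged, control-corrected barcode counts per million at recombinant junctions, reported as log10(CPM+1).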
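Note: IS621 recombinase and bridge RNA in Escherichia coli cells.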

Sequence | recombinant barcode read abundance (log10)
TGCCAATCTTGGGTTCTAACCTGTTGCCT (site TGCCAATCTAG) | 0.242
TGCCAATCTTGGGTTCTAACCTGTTGCCT (site TTCCAATCTTG) | 0.0187
TGCCATCCTTGGGTTCTAACCTGTTGCAT (site AGCCATCCTAT) | 0.111
TGCCATCCTTGGGTTCTAACCTGTTGCAT (site TGCCATCCTAT) | 0.544
TGCCTCTCTTGGGTTCTAACCTGTTGCCT (site GGCTTCTCTAG) | 0.0915
TGCCTCTCTTGGGTTCTAACCTGTTGCCT (site TGCCTCTCTAG) | 0.172
TGCCTGCCTTGGGTTCTAACCTGTTGCAG (site ATAGAATCTGA) | 0.245
TGCCTGCCTTGGGTTCTAACCTGTTGCAG (site TGCCTGCCTCT) | 0.0105
TGCGAGTCTTGGGTTCTAACCTGTTGCCT (site TGCAAGTCTAG) | 0.626
TGCGAGTCTTGGGTTCTAACCTGTTGCCT (site TGCGAGTCTAG) | 1.12
TGCGCCACTTGGGTTCTAACCTGTTGCCT (site TGCGCAACTAG) | 0.113
TGCGCCACTTGGGTTCTAACCTGTTGCCT (site TGCGCCACTAG) | 0.517
TGCGCCACTTGGGTTCTAACCTGTTGCCT (site TGCGCGACTAG) | 0.0341
TGCGCCACTTGGGTTCTAACCTGTTGCCT (site TGCGCTACTAG) | 0.0797
TGCGTCACTTGGGTTCTAACCTGTTGCGT (site TGCGTCACTAC) | 1.56
TGCGTCACTTGGGTTCTAACCTGTTGCGT (site TGCGTTCCTAC) | 0.0906
TGCGTCGCTTGGGTTCTAACCTGTTGCCT (site AGCGTCGCTAG) | 0.149
TGCGTCGCTTGGGTTCTAACCTGTTGCCT (site TGCGTCGCTAG) | 0.687

Sequence | recombinant barcode read abundance (log10)
TGCTAAGCTTGGGTTCTAACCTGTTGCTG (site TCCTAAGCTCC) | 0.288
TGCTAAGCTTGGGTTCTAACCTGTTGCTG (site TGCTAAGCTCA) | 0.16
TGCTACCCTTGGGTTCTAACCTGTTGCCT (site TACTACCCTAG) | 0.81
TGCTACCCTTGGGTTCTAACCTGTTGCCT (site TCCTACCCTAG) | 0.367
TGCTACCCTTGGGTTCTAACCTGTTGCCT (site TGCTACCCTAG) | 0.427
TGCTACCCTTGGGTTCTAACCTGTTGCCT (site TTCTACCCTAG) | 0.213
TGCTGATCTTGGGTTCTAACCTGTTGCCT (site AGCTGATCTAG) | 0.114
TGCTGATCTTGGGTTCTAACCTGTTGCCT (site CGCTGATCTAG) | 0.159
TGCTGATCTTGGGTTCTAACCTGTTGCCT (site GGCTGATCTAG) | 0.158
TGCTGATCTTGGGTTCTAACCTGTTGCCT (site TGCTGATCTAG) | 0.335
TGCTGTACTTGGGTTCTAACCTGTTGCCT (site TGCTGTACTAG) | 0
TGCTGTACTTGGGTTCTAACCTGTTGCCT (site TGCTGTCCTAG) | 0.0484
TGCTGTACTTGGGTTCTAACCTGTTGCCT (site TGCTGTGCTAG) | 0.0772
TGCTGTACTTGGGTTCTAACCTGTTGCCT (site TGCTGTTCTAG) | 0.0131
TGCTGTTCTTGGGTTCTAACCTGTTGCCT (site TGCTGTACTAG) | 0.0922
TGCTGTTCTTGGGTTCTAACCTGTTGCCT (site TGCTGTCCTAG) | 0.212
TGCTGTTCTTGGGTTCTAACCTGTTGCCT (site TGCTGTGCTAG) | 0.241
TGCTGTTCTTGGGTTCTAACCTGTTGCCT (site TGCTGTTCTAG) | 0.187
